Test results: paper PMC6286348, “Inhibitor binding mode and allosteric regulation of Na^+-glucose symporters” (Nature Communications, 2018)
Where a chain is given by its changes, count along the chain named.

Legend:
hSGLT1 Y290F = biological target: T1, hSGLT1 Y290F (Homo sapiens, UniProt P13866, Y290F); parameters: method as in PMID 23116249; details: oocytes, 22 °C; cited from earlier work
T1 construct: expressed in transfected cells; host or cells: Xenopus laevis oocytes injected with cRNA
T1 sequence (P13866 1-664 Y290F): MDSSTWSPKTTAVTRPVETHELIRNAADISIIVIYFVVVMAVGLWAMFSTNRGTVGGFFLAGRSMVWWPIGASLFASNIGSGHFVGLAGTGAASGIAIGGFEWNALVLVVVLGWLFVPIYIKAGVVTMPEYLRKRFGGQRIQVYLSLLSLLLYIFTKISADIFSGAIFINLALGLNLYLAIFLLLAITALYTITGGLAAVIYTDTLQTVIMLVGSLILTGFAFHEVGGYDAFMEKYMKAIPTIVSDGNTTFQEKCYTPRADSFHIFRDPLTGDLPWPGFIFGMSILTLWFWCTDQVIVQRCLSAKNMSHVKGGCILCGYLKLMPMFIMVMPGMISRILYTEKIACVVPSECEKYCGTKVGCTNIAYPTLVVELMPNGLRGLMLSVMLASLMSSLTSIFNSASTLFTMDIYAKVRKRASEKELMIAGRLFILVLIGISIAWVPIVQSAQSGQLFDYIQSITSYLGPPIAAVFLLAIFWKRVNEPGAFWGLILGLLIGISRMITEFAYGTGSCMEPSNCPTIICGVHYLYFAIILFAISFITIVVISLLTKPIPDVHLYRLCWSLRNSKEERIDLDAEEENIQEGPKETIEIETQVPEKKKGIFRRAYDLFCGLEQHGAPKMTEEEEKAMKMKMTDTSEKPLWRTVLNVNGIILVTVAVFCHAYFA

hSGLT1 F101C = system: hSGLT1 F101C; parameters: method as in PMID 22159082; details: oocytes, 22 °C; cited from earlier work
hSGLT2 A395T = biological target: T2, hSGLT2 A395T (Homo sapiens, UniProt P31639, A395T); test: cell-based; details: poor expression; n = 4 oocytes
T2 construct: expressed in transfected cells; host or cells: Xenopus laevis oocytes injected with hSGLT2 A395T cRNA and MAP17 cRNA
T2 sequence (Q13113 whole entry): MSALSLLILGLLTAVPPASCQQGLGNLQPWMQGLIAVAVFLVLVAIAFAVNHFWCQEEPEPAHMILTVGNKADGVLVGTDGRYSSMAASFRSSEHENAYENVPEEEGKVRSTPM
T2 sequence (P31639 whole entry A395T): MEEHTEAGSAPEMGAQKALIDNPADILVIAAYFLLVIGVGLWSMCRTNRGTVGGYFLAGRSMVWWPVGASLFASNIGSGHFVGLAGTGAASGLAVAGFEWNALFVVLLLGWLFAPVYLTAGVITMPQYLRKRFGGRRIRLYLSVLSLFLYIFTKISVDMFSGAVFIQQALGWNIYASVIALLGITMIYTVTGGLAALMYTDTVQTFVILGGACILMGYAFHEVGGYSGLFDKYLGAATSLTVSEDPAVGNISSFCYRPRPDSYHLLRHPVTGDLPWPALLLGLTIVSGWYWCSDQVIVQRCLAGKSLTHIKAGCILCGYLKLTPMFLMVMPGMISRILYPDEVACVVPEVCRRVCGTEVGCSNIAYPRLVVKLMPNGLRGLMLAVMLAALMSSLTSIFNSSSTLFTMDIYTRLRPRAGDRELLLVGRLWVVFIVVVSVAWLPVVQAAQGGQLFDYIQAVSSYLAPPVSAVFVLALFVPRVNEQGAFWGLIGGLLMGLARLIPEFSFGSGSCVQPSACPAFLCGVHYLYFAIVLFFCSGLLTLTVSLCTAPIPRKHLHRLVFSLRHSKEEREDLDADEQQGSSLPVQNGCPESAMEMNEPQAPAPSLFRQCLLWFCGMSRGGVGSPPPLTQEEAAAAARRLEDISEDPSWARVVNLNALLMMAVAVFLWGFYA
Procedure: (§1) Xenopus laevis (Nasco) oocytes (V–VI) were prepared as previously described[20] and injected with 50 nl of cRNA (1 μg/μl). […] Briefly, oocytes were incubated for 30 min in the presence of 50 μM αMDG (5 μM [^14C]αMDG) in a buffer containing (in mM) 100 NaCl, 2 KCl, 1 MgCl2, 1 CaCl2, and 10 N-(2-hydroxyethyl)piperazine-N′-(2-ethanesulfonic acid) (HEPES)/Tris (pH 7.5). After incubation, oocytes were rinsed thoroughly with ice-cold buffer containing (mM) 100 choline Cl^–, 2 KCl, 1 MgCl2, 1 CaCl2, and 10 HEPES/Tris (pH 7.5), individually lysed with 5% sodium dodecyl sulfate, and assayed for radioactivity.
Injected oocytes were incubated at 18 °C, and after 3–4 days, two electrode voltage clamp experiments were performed as previously described. Briefly, SGLT inward glucose currents were measured as a function of the external Na^+ (0–100 mM NaCl), sugar (0–100 mM αMDG), and inhibitors (0.001–100 μM). Steady-state and hSGLT1 capacitive currents were recorded using voltage steps from a holding voltage, Vh of −60 mV, to voltages in the range of −180 to +50 mV in 20 mV increments. The apparent affinity of αMDG, K0.5, was estimated from plots of the inward current as a function of the external αMDG concentration. Under our experimental conditions, K0.5 is a close approximation of the αMDG binding constant to the Na^+-bound outward conformation of SGLT. The apparent affinity for Na^+, K0.5, was estimated from plots of the αMDG inward current as a function of external Na^+ concentration. For hSGLT1 the interpretation of K0.5 is more complex owing to the presence of two Na^+ binding sites. In this case, the K0.5 is a lumped coefficient for Na^+ binding to the two sites in the outward-facing hSGLT1 conformation. […] The Na^+-to-αMDG stoichiometry was determined from the reversal potential measurements using the Gibbs free energy as previously described. The stoichiometry determinations were reinforced by estimates of αMDG and Na^+ Hill coefficients, and in some cases, by measurement of ^22Na and [^14C]αMDG uptakes under voltage clamp, [21].

hSGLT1 D268H = biological target: T3, hSGLT1 D268H (Homo sapiens, UniProt P13866, D268H); test: SGLT current measurement in oocytes, hSGLT1 D268H; assay type: cell-based; details: 10 mM αMDG, Vm = −50 mV; oocytes, 22 °C
T3 construct: expressed in transfected cells; host or cells: Xenopus laevis oocytes injected with cRNA
T3 sequence (P13866 1-664 D268H): T1 sequence (P13866 1-664 Y290F) with D268H, F290Y
Procedure: as §1
Injected oocytes were incubated at 18 °C, and after 3–4 days, two electrode voltage clamp experiments were performed as previously described. Briefly, SGLT inward glucose currents were measured as a function of the external Na^+ (0–100 mM NaCl), sugar (0–100 mM αMDG), and inhibitors (0.001–100 μM). Steady-state and hSGLT1 capacitive currents were recorded using voltage steps from a holding voltage, Vh of −60 mV, to voltages in the range of −180 to +50 mV in 20 mV increments. The apparent affinity of αMDG, K0.5, was estimated from plots of the inward current as a function of the external αMDG concentration. […] The Na^+-to-αMDG stoichiometry was determined from the reversal potential measurements using the Gibbs free energy as previously described. […]

SMILES: [Na+] [Na^+]
- K0.5 Na^+ (hSGLT1 Y290F): 20 ± 1[21] mM
- K0.5 Na^+ (hSGLT1 F101C): 9 ± 1[20] mM
- K0.5 Na^+ (hSGLT2 A395T): 30 ± 10 mM
- K0.5 Na^+ (hSGLT1 D268H): 17 ± 1.2 mM
